Molecules are shown by their SMILES.

One experiment concerns poly-Ala RAN proteins. In words: Protein blots for poly-Ala RAN proteins in HEK293T cells transfected with CAG expansion constructs. To be noted: treatment with different concentrations of quercetin, or metformin. The experiment is classed as cell-based. An excerpt:
cDNA constructs. […] Antibodies. […] Western blotting. […] Quantification and statistical analysis.

Experiment [1] relates to C9orf72 ALS/FTD mice (C9). In words: DigiGait gait analysis. The format is in vivo. To be noted: 18 week female mice. As to the method: Gait analysis. Digital video images of the underside of the mouse were collected with a high-speed video camera from below the transparent belt of a motorized treadmill (DigiGait™ Imaging system, Mouse Specific). Female C9orf72 ALS/FTD mice (C9) mice and their littermates (non-transgenic mice (NT)) were tested at 18 weeks of age with treatment beginning at 8 weeks of age. Each mouse was allowed to explore the treadmill compartment with the motor speed set to 14 cm/s for 1 min, then the motor speed was increased to 24c m/s for video recording. Only video recordings in which the mouse walked straight ahead with a constant relative position with respect to the camera were used for analysis. Data from each hind paw was analyzed with DigiGait automated gait analysis software (Mouse Specifics). For additional details, see Neuron, 2016, 90(3), 521-34. doi: 10.1016/j.neuron.2016.04.005. Mock treatment is vehicle only, meaning chow without quercetin.

Setting [2] is: Quercetin-NT vs Quercetin C9, significance.

On to `CN(C)C(=N)NC(=N)N` [metformin], for which the “polyAla RAN proteins expressed from (CAG)exp” value with poly-Ala RAN proteins is recorded as “reduction”.
On to `O=c1c(O)c(-c2ccc(O)c(O)c2)oc2cc(O)cc(O)c12` [quercetin], for which the “13 gait abnormalities found between C9orf72 ALS/FTD mice (C9) vs. non-transgenic (NT) mice” value in experiment [1] (DigiGait, treatment beginning at 8 weeks, quercetin in chow) was “corrected”. Besides, in experiment [1] (setting [2]), the “Absolute PawAngle (deg)” value was “ns”, the “Ataxia Coefficient (real#)” value is “ns”, the “Axis Distance (cm/s)” value is listed as “ns” and the “Brake (s)” value is given as “ns”. In addition, in experiment [1] (setting [2]), the “BrakeStance (%)” value is given as “ns”, the “BrakeStride (%)” value is “ns”, the “Gait Symmetry (real#)” value was “ns” and the “Hind Limb Shared Stance Time (s)” value is “ns”. Also, in experiment [1] (setting [2]), the “MAX dA/dT (cm^2/s)” value is “ns”, the “MIN dA/dT (cm^2/s)” value is “ns”, the “Midline Distance (cm)” value is recorded as “ns” and the “Overlap Distance (cm)” value was “ns”. Besides, in experiment [1] (setting [2]), the “Paw Angle Variability (deg)” value was “ns”, the “Paw Area Variability at Peak Stance in sq. cm (cm^2)” value is given as “ns”, the “Paw Area at Peak Stance in sq. cm (cm^2)” value is on record as “ns” and the “Paw Drag (real#)” value is recorded as “ns”. Moreover, in experiment [1] (setting [2]), the “PawAngle (deg)” value was “ns”, the “PawPlacementPositioning[PPP] (cm)” value was “ns”, the “Propel (s)” value was “ns” and the “PropelStance (%)” value is listed as “ns”. Further, in experiment [1] (setting [2]), the “PropelStride (%)” value is “ns”, the “SLVar (cm)” value is “ns”, the “SWVar (cm)” value is listed as “ns” and the “Shared Stance (%)” value was “ns”. Besides, in experiment [1] (setting [2]), the “Stance (s)” value is listed as “ns”, the “Stance/Swing (real#)” value was “ns”, the “StanceFactor (real#)” value is recorded as “ns” and the “StanceStride (%)” value is “ns”. Moreover, in experiment [1] (setting [2]), the “StanceWidth (cm)” value is given as “ns”, the “StepAngle (deg)” value is recorded as “ns”, the “StepAngle Var (deg)” value is “ns” and the “Steps (real#)” value is given as “ns”. In addition, in experiment [1] (setting [2]), the “Stride (s)” value is listed as “ns”, the “Stride Frequency (steps/s)” value is reported as “ns”, the “StrideLength (cm)” value is on record as “ns” and the “Swing (%)” value was “ns”. For the same molecule, in experiment [1] (setting [2]), the “SwingStride (%)” value was “ns” and the “Tau - Propulsion (real#)” value is listed as “ns”. For the same molecule, the “polyAla RAN proteins expressed from (CAG)exp” value in the experiment with poly-Ala RAN proteins is on record as “reduction”.
